According to PMC4086246 (Journal of cellular biochemistry, 2014):
Positions count from the first letter of the chain named. pIC50: −log10 of the molar value.

Tests used:
ABCG2 [1] = target: T1, ABCG2 (Homo sapiens, UniProt Q9UNQ0, R482T); assay: [3H]-mitoxantrone accumulation in transfected cells; type: cell-based
T1 sequence (Q9UNQ0 1-655 R482T): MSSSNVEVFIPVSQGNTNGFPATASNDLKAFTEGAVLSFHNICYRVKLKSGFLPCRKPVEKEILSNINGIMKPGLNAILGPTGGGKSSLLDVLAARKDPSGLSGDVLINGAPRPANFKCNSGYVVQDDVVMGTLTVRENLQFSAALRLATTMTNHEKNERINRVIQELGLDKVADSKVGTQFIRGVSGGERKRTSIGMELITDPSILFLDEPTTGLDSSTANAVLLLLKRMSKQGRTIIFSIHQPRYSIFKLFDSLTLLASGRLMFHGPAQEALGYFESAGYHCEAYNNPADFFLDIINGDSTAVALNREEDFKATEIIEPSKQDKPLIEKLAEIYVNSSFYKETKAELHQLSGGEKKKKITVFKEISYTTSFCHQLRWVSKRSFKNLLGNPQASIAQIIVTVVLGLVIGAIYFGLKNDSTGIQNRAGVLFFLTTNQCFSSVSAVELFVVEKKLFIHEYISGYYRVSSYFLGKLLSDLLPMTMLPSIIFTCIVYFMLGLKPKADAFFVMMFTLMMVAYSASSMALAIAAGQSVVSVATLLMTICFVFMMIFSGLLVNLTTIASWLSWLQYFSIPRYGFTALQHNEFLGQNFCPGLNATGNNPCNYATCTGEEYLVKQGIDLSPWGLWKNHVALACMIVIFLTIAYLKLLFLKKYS

ABCG2 [2] = target: T2, ABCG2 (Homo sapiens, UniProt Q9UNQ0, R482G); assay: as above; type: cell-based
T2 sequence (Q9UNQ0 1-655 R482G): T1 sequence (Q9UNQ0 1-655 R482T) with T482G

ABCG2 [3] = target: T3, ABCG2 (Homo sapiens, UniProt Q9UNQ0); assay: inhibition of […]-IAAP photoaffinity labeling in membranes; type: binding
T3 sequence (Q9UNQ0 1-655): T1 sequence (Q9UNQ0 1-655 R482T) with T482R

C[C@@H]1COC(Nc2ccc3ncnc(Nc4ccc(OCc5nccs5)c(Cl)c4)c3c2)=N1 [ARRY-334543]
[3H]-mitoxantrone accumulation in transfected cells (0.25 and 1.0 μM) (ABCG2 [1]): significantly increased intracellular levels of [^3H]-MX in the NCI-H460, NCI-H460/MX20, ABCG2-482-R2, ABCG2-482-G2, and ABCG2-482-T7 cells | [3H]-mitoxantrone accumulation in transfected cells (0.25 and 1.0 μM) (ABCG2 [2]): significantly increased intracellular levels of [^3H]-MX in the NCI-H460, NCI-H460/MX20, ABCG2-482-R2, ABCG2-482-G2, and ABCG2-482-T7 cells | pIC50 (ABCG2 [3]): 5.43
